Results published in ChEMBL document CHEMBL1149774, “Synthesis of N-(5,7-diamino-3-phenyl-quinoxalin-2-yl)-3,4,5-substituted anilines and N-[4[(5,7-diamino-3-phenylquinoxalin-2-yl)amino]benzoyl]-l-glutamic acid diethyl ester: evaluation of in vitro anti-cancer and anti-folate activities” (Eur J Med Chem, 2008).

Assays:
Assay type in all cases: functional
[1] = Growth inhibition of human HS 578T cells after 48 hrs by SRB staining method
[2] = test system: UACC-62; assay: Growth inhibition of human UACC62 cells after 48 hrs by SRB staining method; settings: UACC-62, 48 h
[3] = test system: NCI-H522; assay: Growth inhibition of human NCI-H522 cells after 48 hrs by SRB staining method; settings: NCI-H522, 48 h
[4] = test system: RPMI-8226; assay: Growth inhibition of human RPMI8226 cells after 48 hrs by SRB staining method; settings: RPMI-8226, 48 h
[5] = test system: SK-MEL-28; assay: Growth inhibition of human SK-MEL-28 cells after 48 hrs by SRB staining method; settings: SK-MEL-28, 48 h
[6] = test system: UO-31; assay: Growth inhibition of human UO31 cells after 48 hrs by SRB staining method; settings: UO-31, 48 h
[7] = test system: SW-620; assay: Growth inhibition of human SW620 cells after 48 hrs by SRB staining method; settings: SW-620, 48 h
[8] = test system: U-251; assay: Growth inhibition of human U251 cells after 48 hrs by SRB staining method; settings: U-251, 48 h
[9] = test system: KM12; assay: Growth inhibition of human KM12 cells after 48 hrs by SRB staining method; settings: KM12, 48 h
[10] = test system: NCI/ADR-RES; assay: Growth inhibition of human NCI/ADR-RES cells after 48 hrs by SRB staining method
[11] = test system: NCI-H460; assay: Growth inhibition of human NCI-H460 cells after 48 hrs by SRB staining method; settings: NCI-H460, 48 h
[12] = test system: NCI-H322M; assay: Growth inhibition of human NCI-H322M cells after 48 hrs by SRB staining method
[13] = test system: LOX IMVI; assay: Growth inhibition of human LOX IMVI cells after 48 hrs by SRB staining method
[14] = test system: HCT-15; assay: Growth inhibition of human HCT15 cells after 48 hrs by SRB staining method; settings: HCT-15, 48 h
[15] = test system: ACHN; assay: Growth inhibition of human ACHN cells after 48 hrs by SRB staining method
[16] = test system: SN12C; assay: Growth inhibition of human SN12C cells after 48 hrs by SRB staining method
[17] = test system: SK-MEL-2; assay: Growth inhibition of human SK-MEL-2 cells after 48 hrs by SRB staining method; settings: SK-MEL-2, 48 h
[18] = test system: EKVX; assay: Growth inhibition of human EKVX cells after 48 hrs by SRB staining method
[19] = test system: NCI-H23; assay: Growth inhibition of human NCI-H23 cells after 48 hrs by SRB staining method; settings: NCI-H23, 48 h
[20] = test system: SK-MEL-5; assay: Growth inhibition of human SK-MEL-5 cells after 48 hrs by SRB staining method; settings: SK-MEL-5, 48 h
[21] = test system: OVCAR-8; assay: Growth inhibition of human OVCAR8 cells after 48 hrs by SRB staining method; settings: OVCAR-8, 48 h
[22] = test system: RXF 393; assay: Growth inhibition of human RXF393 cells after 48 hrs by SRB staining method; settings: RXF 393, 48 h
[23] = test system: A498; assay: Growth inhibition of human A498 cells after 48 hrs by SRB staining method; settings: A498, 48 h
[24] = test system: SR; assay: Growth inhibition of human SR cells after 48 hrs by SRB staining method
[25] = test system: DU-145; assay: Growth inhibition of human DU145 cells after 48 hrs by SRB staining method; settings: DU-145, 48 h
[26] = test system: NCI-H226; assay: Growth inhibition of human NCI-H226 cells after 48 hrs by SRB staining method; settings: NCI-H226, 48 h
[27] = test system: SF-268; assay: Growth inhibition of human SF268 cells after 48 hrs by SRB staining method; settings: SF-268, 48 h
[28] = test system: K562; assay: Growth inhibition of human K562 cells after 48 hrs by SRB staining method; settings: K562, 48 h
[29] = test system: SK-OV-3; assay: Growth inhibition of human SKOV3 cells after 48 hrs by SRB staining method; settings: SK-OV-3, 48 h
[30] = test system: HOP-62; assay: Growth inhibition of human HOP62 cells after 48 hrs by SRB staining method; settings: HOP-62, 48 h
[31] = test system: SNB-19; assay: Growth inhibition of human SNB19 cells after 48 hrs by SRB staining method; settings: SNB-19, 48 h
[32] = test system: 786-0; assay: Growth inhibition of human 786-0 cells after 48 hrs by SRB staining method; settings: 786-0, 48 h
[33] = test system: A549; assay: Growth inhibition of human A549 cells after 48 hrs by SRB staining method; settings: A549, 48 h
[34] = read-out: pLC50 (the source's name) (converted)

Compound: COc1ccc(Nc2nc3cc(N)cc(N)c3nc2-c2ccccc2)cc1OC
- GI50 [1]: 18.6 µM
- CC50 [1, 34]: > 100 µM
- TGI ([1]; read-out: pTGI (converted)): 50.1 µM
- GI50 [2]: 13.5 µM
- LC50 [2]: 56.2 µM
- TGI ([2]; read-out: pTGI (converted)): 27.5 µM
- GI50 [3]: 28.8 µM
- LC50 [3]: > 100 µM
- TGI ([3]; read-out: pTGI (converted)): > 100 µM
- GI50 [4]: 7.94 µM
- CC50 [4, 34]: 87.1 µM
- TGI ([4]; read-out: pTGI (converted)): 28.2 µM
- GI50 [5]: 21.4 µM
- CC50 [5, 34]: > 100 µM
- TGI ([5]; read-out: pTGI (converted)): 50.1 µM
- GI50 [6]: 28.2 µM
- CC50 [6, 34]: > 100 µM
- TGI ([6]; read-out: pTGI (converted)): > 100 µM
- GI50 [7]: 15.5 µM
- CC50 [7, 34]: 83.2 µM
- TGI ([7]; read-out: pTGI (converted)): 36.3 µM
- GI50 [8]: 25.7 µM
- LC50 (50% lethal concentration) [8]: > 100 µM
- TGI ([8]; read-out: pTGI (converted)): > 100 µM
- GI50 [9]: 14.8 µM
- LC50 [9]: 69.2 µM
- TGI ([9]; read-out: pTGI (converted)): 32.4 µM
- GI50 [10]: 17.4 µM
- CC50 [10, 34]: > 100 µM
- TGI ([10]; read-out: pTGI (converted)): 42.7 µM
- GI50 [11]: 20.4 µM
- LC50 (concentration killing 50% of cells) [11]: > 100 µM
- TGI ([11]; read-out: pTGI (converted)): > 100 µM
- GI50 [12]: > 100 µM
- LC50 [12]: > 100 µM
- TGI ([12]; read-out: pTGI (converted)): 25.1 µM
- GI50 [13]: 25.7 µM
- LC50 [13]: > 100 µM
- TGI ([13]; read-out: pTGI (converted)): 72.4 µM
- GI50 [14]: 28.8 µM
- LC50 [14]: > 100 µM
- TGI ([14]; read-out: pTGI (converted)): > 100 µM
- GI50 [15]: 27.5 µM
- CC50 [15, 34]: > 100 µM
- TGI ([15]; read-out: pTGI (converted)): > 100 µM
- GI50 [16]: 16.6 µM
- CC50 [16, 34]: > 100 µM
- TGI ([16]; read-out: pTGI (converted)): 43.7 µM
- GI50 [17]: 26.9 µM
- LC50 [17]: > 100 µM
- TGI ([17]; read-out: pTGI (converted)): > 100 µM
- GI50 [18]: 25.7 µM
- CC50 [18, 34]: > 100 µM
- TGI ([18]; read-out: pTGI (converted)): 70.8 µM
- GI50 [19]: 26.3 µM
- LC50 [19]: > 100 µM
- TGI ([19]; read-out: pTGI (converted)): 79.4 µM
- GI50 [20]: 12.3 µM
- LC50 [20]: 53.7 µM
- TGI ([20]; read-out: pTGI (converted)): 25.7 µM
- GI50 [21]: 33.9 µM
- CC50 [21, 34]: > 100 µM
- TGI ([21]; read-out: pTGI (converted)): > 100 µM
- GI50 [22]: 8.13 µM
- CC50 [22, 34]: > 100 µM
- TGI ([22]; read-out: pTGI (converted)): 49 µM
- GI50 [23]: 11.7 µM
- CC50 [23, 34]: > 100 µM
- TGI ([23]; read-out: pTGI (converted)): 56.2 µM
- GI50 [24]: 2.69 µM
- CC50 [24, 34]: > 100 µM
- TGI ([24]; read-out: pTGI (converted)): 21.9 µM
- GI50 [25]: 44.7 µM
- CC50 [25, 34]: > 100 µM
- TGI ([25]; read-out: pTGI (converted)): > 100 µM
- GI50 [26]: 18.6 µM
- LC50 [26]: > 100 µM
- TGI ([26]; read-out: pTGI (converted)): 57.5 µM
- GI50 [27]: 14.1 µM
- CC50 [27, 34]: > 100 µM
- TGI ([27]; read-out: pTGI (converted)): 46.8 µM
- GI50 [28]: 20.4 µM
- CC50 [28, 34]: > 100 µM
- TGI ([28]; read-out: pTGI (converted)): 70.8 µM
- GI50 [29]: 38 µM
- CC50 [29, 34]: > 100 µM
- TGI ([29]; read-out: pTGI (converted)): 87.1 µM
- GI50 [30]: 34.7 µM
- LC50 [30]: > 100 µM
- TGI ([30]; read-out: pTGI (converted)): > 100 µM
- GI50 [31]: 35.5 µM
- LC50 [31]: > 100 µM
- TGI ([31]; read-out: pTGI (converted)): > 100 µM
- GI50 [32]: 24 µM
- CC50 [32, 34]: > 100 µM
- TGI ([32]; read-out: pTGI (converted)): 91.2 µM
- GI50 [33]: 35.5 µM
- CC50 [33, 34]: > 100 µM
- TGI ([33]; read-out: pTGI (converted)): > 100 µM
